The values below come from patent US10550105B2 (Ribon Therapeutics Inc., priority 2018, dated 2020).

This test concerns the target PARP7 (Homo sapiens (Human), UniProt Q7Z3E1). The test can be described thus: Enzymatic assay for inhibition of PARP7: TR-FRET displacement of biotinylated Probe A from the TIPARP active site. In kind it is binding. The settings on record: Table A-1. The gist of the method:
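Displacement of biotinylated Probe A from TIPARP was measured as the 665/615 nm time-resolved FRET ratio (excitation 320 nm, 90 μs delay) after a further 30 min at 25 °C. Inhibition across compound concentrations was fitted by dose-response regression, with the Hill slope free or fixed at 1 (3-parameter fit).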
In general terms: TR-FRET usually uses a lanthanide donor and a delayed reading to cut background.

Sequence of PARP7 (Q7Z3E1 whole entry): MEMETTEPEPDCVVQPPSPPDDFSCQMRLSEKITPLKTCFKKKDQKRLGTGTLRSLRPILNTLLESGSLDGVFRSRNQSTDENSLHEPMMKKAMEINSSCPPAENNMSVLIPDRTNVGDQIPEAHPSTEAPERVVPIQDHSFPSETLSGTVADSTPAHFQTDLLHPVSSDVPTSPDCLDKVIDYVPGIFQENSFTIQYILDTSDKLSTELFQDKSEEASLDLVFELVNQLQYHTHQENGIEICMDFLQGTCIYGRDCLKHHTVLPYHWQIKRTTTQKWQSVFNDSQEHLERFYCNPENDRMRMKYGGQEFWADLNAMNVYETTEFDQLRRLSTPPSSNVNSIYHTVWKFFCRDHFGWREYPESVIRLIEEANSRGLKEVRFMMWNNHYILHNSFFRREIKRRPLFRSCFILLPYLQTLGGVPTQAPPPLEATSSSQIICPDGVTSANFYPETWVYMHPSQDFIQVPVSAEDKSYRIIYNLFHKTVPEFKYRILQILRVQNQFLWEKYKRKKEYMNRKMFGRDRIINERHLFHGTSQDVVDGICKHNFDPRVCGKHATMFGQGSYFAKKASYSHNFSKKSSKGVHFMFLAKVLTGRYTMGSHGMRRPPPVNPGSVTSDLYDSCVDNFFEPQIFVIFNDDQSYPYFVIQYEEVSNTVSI

One may read the IC50 as the midpoint of a concentration-inhibition curve. Low readings indicate greater potency in that assay, high ones weaker potency in that assay. With `N#Cc1ccc(N2CC3CN(C(=O)CCOC[C@@H]4CCCN4c4cn[nH]c(=O)c4C(F)(F)F)CC3C2)nc1` (stereo in doubt) [Example 113, (S)-6-[5-(3-[[1-[6-oxo-5-(trifluoromethyl)-1,6-dihydropyridazin-4-yl]pyrrolidin-2-yl]methoxy]propanoyl)-octahydropyrrolo[3,4-c]pyrrol-2-yl]pyridine-3-carbonitrile], the IC50 is < 100 nM.

Turning to `CC(=O)N1CCC(Oc2cc3c(cc2F)CN(c2cn[nH]c(=O)c2C(F)(F)F)C3)CC1` [Example 1, 5-[5-[(1-acetylpiperidin-4-yl)oxy]-6-fluoro-2,3-dihydro-1 H-isoindol-2-yl]-4-(trifluoromethyl)-2,3-dihydropyridazin-3-one], the IC50 is < 100 nM. On to `CC(=O)N1CCC(Oc2ccc(F)c3c2CN(c2cn[nH]c(=O)c2C(F)(F)F)C3)CC1` [Example 2, 5-[4-[(1-acetylpiperidin-4-yl)oxy]-7-fluoro-2,3-dihydro-1H-isoindol-2-yl]-4-(trifluoromethyl)-2,3-dihydropyridazin-3-one], for which the 50% inhibitory concentration (IC50) was < 100 nM. As for `O=c1[nH]ncc(N2Cc3cc(OC4CCNCC4)cc(F)c3C2)c1C(F)(F)F` [Example 3, 5-[4-fluoro-6-(piperidin-4-yloxy)-2,3-dihydro-1H-isoindol-2-yl]-4-(trifluoromethyl)-2,3-dihydropyridazin-3-one; formic acid], the figure is < 100 nM. For the compound `CC(=O)N1CCC(Oc2cc(F)c3c(c2)CN(c2cn[nH]c(=O)c2C(F)(F)F)C3)CC1` [Example 4, 5-[6-[(1-acetylpiperidin-4-yl)oxy]-4-fluoro-2,3-dihydro-1H-isoindol-2-yl]-4-(trifluoromethyl)-2,3-dihydropyridazin-3-one], the IC50 is < 100 nM. `CC(=O)N1CCC(Oc2cc3c(cc2F)CN(c2cn[nH]c(=O)c2C(F)(F)F)C3C)CC1` (stereo not shown) [Example 5, 5-[6-[(1-acetylpiperidin-4-yl)oxy]-5-fluoro-1-methyl-2,3-dihydro-1H-isoindol-2-yl]-4-(trifluoromethyl)-2,3-dihydropyridazin-3-one] showed a half-maximal inhibitory concentration (IC50) of 100 to 1000 nM. In turn, `CN1CCC(Oc2ccc3c(n2)CN(c2cn[nH]c(=O)c2C(F)(F)F)C3)CC1` [Example 6, 5-[2-[(1-methylpiperidin-4-yl)oxy]-5H,6H,7H-pyrrolo[3,4-b]pyridin-6-yl]-4-(trifluoromethyl)-2,3-dihydropyridazin-3-one] had an IC50 of 100 to 1000 nM. As for `O=c1[nH]ncc(N2Cc3cc(OC4CCNCC4)cnc3C2)c1C(F)(F)F` [Example 7, 5-[3-(piperidin-4-yloxy)-5H,6H,7H-pyrrolo[3,4-b]pyridin-6-yl]-4-(trifluoromethyl)-2,3-dihydropyridazin-3-one], the figure is 100 to 1000 nM; as for `CC(=O)N1CCC(Oc2cnc3c(c2)CN(c2cn[nH]c(=O)c2C(F)(F)F)C3)CC1` [Example 8, 5-[3-[(1-acetylpiperidin-4-yl)oxy]-5H,6H,7H-pyrrolo[3,4-b]pyridin-6-yl]-4-(trifluoro-methyl)-2,3-dihydropyridazin-3-one], 100 to 1000 nM.

As for `O=c1[nH]ncc(N2Cc3nccc(OC4CCNCC4)c3C2)c1C(F)(F)F` [Example 9, 5-[4-(piperidin-4-yloxy)-5H,6H,7H-pyrrolo[3,4-b]pyridin-6-yl]-4-(trifluoromethyl)-2,3-dihydropyridazin-3-one], the concentration for half-maximal inhibition (IC50) is 100 to 1000 nM. As for `O=c1[nH]ncc(N2Cc3nccc(OCCN4CCOCC4)c3C2)c1C(F)(F)F` [Example 10, 5-[4-[2-(morpholin-4-yl)ethoxy]-5H,6H,7H-pyrrolo[3,4-b]pyridin-6-yl]-4-(trifluoromethyl)-2,3-dihydropyridazin-3-one], the figure is 100 to 1000 nM; as for `COc1cc2c(cn1)CN(c1cn[nH]c(=O)c1C(F)(F)F)C2` [Example 11, 5-[6-methoxy-1H,2H,3H-pyrrolo[3,4-c]pyridin-2-yl]-4-(trifluoromethyl)-2,3-dihydropyridazin-3-one], < 100 nM. As for `O=c1[nH]ncc(N2Cc3cnc(OC4CCNCC4)cc3C2)c1C(F)(F)F` [Example 12, 5-[6-(piperidin-4-yloxy)-1H,2H,3H-pyrrolo[3,4-c]pyridin-2-yl]-4-(trifluoromethyl)-2,3-dihydropyridazin-3-one], the figure is 100 to 1000 nM; as for `CC(=O)N1CCC(Oc2cc3c(cn2)CN(c2cn[nH]c(=O)c2C(F)(F)F)C3)CC1` [Example 13], < 100 nM; as for `CN(C)CCOc1cc2c(cc1F)CN(c1cn[nH]c(=O)c1C(F)(F)F)C2` [Example 14, 5-[5-[2-(dimethylamino)ethoxy]-6-fluoro-2,3-dihydro-1H-isoindol-2-yl]-4-(trifluoromethyl)-2,3-dihydropyridazin-3-one; formic acid], < 100 nM. As for `O=c1[nH]ncc(N2Cc3ccnc(OCc4cccnc4)c3C2)c1C(F)(F)F` [Example 15, 5-[4-(pyridin-3-ylmethoxy)-1H,2H,3H-pyrrolo[3,4-c]pyridin-2-yl]-4-(trifluoromethyl)-2,3-dihydropyridazin-3-one], the figure is < 100 nM.

Turning to `O=c1[nH]ncc(N2Cc3ccnc(OC4CCNCC4)c3C2)c1C(F)(F)F` [Example 16, 5-[4-(piperidin-4-yloxy)-1H,2H,3H-pyrrolo[3,4-c]pyridin-2-yl]-4-(trifluoromethyl)-2,3-dihydropyridazin-3-one], the IC50 fell in the range of 100 to 1000 nM. As for `O=c1[nH]ncc(N2Cc3ccc(CNc4ccncc4)cc3C2)c1C(F)(F)F` [Example 17, 5-(5-[[(pyridin-4-yl)amino]methyl]-2,3-dihydro-1H-isoindol-2-yl)-4-(trifluoromethyl)-2,3-dihydropyridazin-3-one], the figure is < 100 nM.

`O=c1[nH]ncc(N2Cc3cc(F)c(OCCN4CCOCC4)cc3C2)c1C(F)(F)F` [Example 19, 5-[5-fluoro-6-[2-(morpholin-4-yl)ethoxy]-2,3-dihydro-1H-isoindol-2-yl]-4-(trifluoromethyl)-2,3-dihydropyridazin-3-one]: the IC50 is < 100 nM.

In the case of `O=c1[nH]ncc(N2Cc3cc(F)c(OCC4CCNCC4)cc3C2)c1C(F)(F)F` [Example 20, 5-[5-fluoro-6-(piperidin-4-ylmethoxy)-2,3-dihydro-1H-isoindol-2-yl]-4-(trifluoromethyl)-2,3-dihydropyridazin-3-one], the IC50 is < 100 nM. Consider `CC(=O)N1CCC(COc2cc3c(cc2F)CN(c2cn[nH]c(=O)c2C(F)(F)F)C3)CC1` [Example 21, 5-[5-[(1-acetylpiperidin-4-yl)methoxy]-6-fluoro-2,3-dihydro-1H-isoindol-2-yl]-4-(trifluoromethyl)-2,3-dihydropyridazin-3-one], for which the IC50 was < 100 nM. As for `CN1CCC(COc2cc3c(cc2F)CN(c2cn[nH]c(=O)c2C(F)(F)F)C3)CC1` [Example 22, 5-[5-fluoro-6-[(1-methylpiperidin-4-yl)methoxy]-2,3-dihydro-1H-isoindol-2-yl]-4-(trifluoromethyl)-2,3-dihydropyridazin-3-one], the figure is < 100 nM; as for `O=c1[nH]ncc(N2Cc3cc(F)c(CNC4CCNCC4)cc3C2)c1C(F)(F)F` [Example 23, 5-(5-fluoro-6-[[(piperidin-4-yl)amino]methyl]-2,3-dihydro-1H-isoindol-2-yl)-4-(trifluoromethyl)-2,3-dihydropyridazin-3-one], < 100 nM. As for `CC(=O)N1CCC(NCc2cc3c(cc2F)CN(c2cn[nH]c(=O)c2C(F)(F)F)C3)CC1` [Example 24, 5-(5-[[(1-acetylpiperidin-4-yl)amino]methyl]-6-fluoro-2,3-dihydro-1H-isoindol-2-yl)-4-(trifluoromethyl)-2,3-dihydropyridazin-3-one], the figure is < 100 nM.

For `CN1CCC(NCc2cc3c(cc2F)CN(c2cn[nH]c(=O)c2C(F)(F)F)C3)CC1` [Example 25, 5-(5-fluoro-6-[[(1-methylpiperidin-4-yl)amino]methyl]-2,3-dihydro-1H-isoindol-2-yl)-4-(trifluoromethyl)-2,3-dihydropyridazin-3-one], the IC50 was < 100 nM.

`O=c1[nH]ncc(N2Cc3cc(F)c(N4CCOCC4)cc3C2)c1C(F)(F)F` [Example 26, 5-[5-fluoro-6-(morpholin-4-yl)-2,3-dihydro-1H-isoindol-2-yl]-4-(trifluoromethyl)-2,3-dihydropyridazin-3-one]: the IC50 was < 100 nM.

`O=c1[nH]ncc(N2Cc3cccc(OC4CCN(C(c5ccccc5)c5ccccc5)CC4)c3C2)c1C(F)(F)F` [Example 27, 5-(4-[[1-(diphenylmethyl)piperidin-4-yl]oxy]-2,3-dihydro-1H-isoindol-2-yl)-4-(trifluoromethyl)-2,3-dihydropyridazin-3-one] gave an IC50 of 100 to 1000 nM.

For `O=c1[nH]ncc(N2Cc3ccc(OC4CCN(C(c5ccccc5)c5ccccc5)CC4)cc3C2)c1C(F)(F)F` [Example 28, 5-(5-[[1-(diphenylmethyl)piperidin-4-yl]oxy]-2,3-dihydro-1H-isoindol-2-yl)-4-(trifluoromethyl)-2,3-dihydropyridazin-3-one], the 50% inhibitory concentration (IC50) is < 100 nM.

On to `CN(CCOc1cccc(C(=O)N2CCN(c3ccc(C#N)cn3)CC2)c1)c1cn[nH]c(=O)c1C(F)(F)F` [Example 29, 6-(4-[[3-(2-[methyl[6-oxo-5-(trifluoromethyl)-1,6-dihydropyridazin-4-yl]amino]ethoxy)phenyl]carbonyl]piperazin-1-yl)pyridine-3-carbonitrile], for which the concentration for half-maximal inhibition (IC50) was < 100 nM. In the case of `N#Cc1ccc(N2CCN(C(=O)c3cccc(OC[C@H]4CCCN4c4cn[nH]c(=O)c4C(F)(F)F)c3)CC2)nc1` [Example 31, 6-[4-[(3-[[(2R)-1-[6-oxo-5-(trifluoromethyl)-1,6-dihydropyridazin-4-yl]pyrrolidin-2-yl]methoxy]phenyl)carbonyl]piperazin-1-yl]pyridine-3-carbonitrile], the half-maximal inhibitory concentration (IC50) is ≥ 1000 nM.

Consider `N#Cc1ccc(N2CCN(C(=O)c3cccc(OC[C@@H]4CCCN4c4cn[nH]c(=O)c4C(F)(F)F)c3)CC2)nc1` [Example 32, 6-[4-[(3-[[(2S)-1-[6-Oxo-5-(trifluoromethyl)-1,6-dihydropyridazin-4-yl]pyrrolidin-2-yl]methoxy]phenyl)carbonyl]piperazin-1-yl]pyridine-3-carbonitrile], for which the IC50 was < 100 nM.
